This passage reports IC50 results from patent publication EP3042903B1, “Substituted hetero-bicyclic compounds, compositions and medicinal applications thereof” (Impetis Biosciences Ltd., priority 2015, dated 2016).

In assay [1] the test system is B cell activation as measured by CD69 expression in mouse splenocytes. In words: Inhibition of B cell activation as measured by CD69 expression in mouse splenocytes (flow cytometry). The class given is cell-based. The note with it: C57/BL6 splenocytes, 3 µg/mL goat anti-mouse IgM, 18-20 hours, CD69 +ve cells within CD19; read-out: IC50 (nM) in B cell activation assay in Mouse spleenocytes. An excerpt:
Inhibition of B cell activation as measured by CD69 expression in mouse splenocytes:
To test the effect of BTK inhibitors in suppressing B-cell receptor (BCR) mediated activation of B cells, we developed a flow cytometry based assay to analyze CD69 expression in B cell population among total splenocyte from the mouse. C57/BL6 mouse spleens were dissected out and splenocytes were isolated by mincing the tissue with a syringe plunger followed by RBC lysis (0.85% ammonium chloride, (Qualigens,Cat #21405) and several washes in PBS. Finally, cell were cultured in culture medium [RPMI medium (Sigma, Cat R6504) with 10% FBS (Gibco - Cat #10270).
Test compounds were diluted half log starting from 2 mM in 100% DMSO (Sigma, cat#D2650) (200X). 1x10^5 splenocytes were incubated with 1 µL of diluted test compounds in 200 µL culture medium in a U-bottom 96 well plate (Greiner) at 37°C with 5% CO2 for 30 minutes. Control wells received 1 µL of 100% DMSO without any compound. The cells were stimulated with 3 µg/mL goat anti-mouse IgM (Sigma, cat#M8644) and incubated for 18-20 hours. After the stimulation, cells were washed in cold PBS with 1% FBS and stained with 1:100 dilution of anti-CD69-PE (eBioscience, cat#12-0691-83) and anti-CD19-PE.Cy5 (eBioscience, cat#15-0193-83) for 1 hour on ice. Then the cells were washed 3 times with PBS with 1% FBS and analyzed by Guava Easycyte Mini flow cytometer system (Millipore). Flow cytometry data were analyzed using Weasel software (WEHI, Melbourne). B cells were gated using CD19 marker. Expression of CD69 was analyzed as percentage of CD69 +ve cells within CD19. Percent activity for each data point was calculated using following formula: [formula]
(§1) Percentage activity was fit using sigmoid dose response with variable slope logistic equation in GraphPad Prism 5 software to determine IC50.
In general terms: A flow cytometer gives signals particle by particle.

Assay [2] has as its system B cell activation as measured by CD69 expression in Human whole blood. In words: Inhibition of B cell activation as measured by CD69 expression in Human whole blood (flow cytometry). The class given is cell-based. To be noted: heparinized human whole blood, anti-IgD antibody 30 µg/mL, 4 hours, CD69 positive cells among CD20 B cells. The protocol:
Inhibition of B cell activation as measured by CD69 expression in Human whole blood
To test the effect of BTK inhibitors in suppressing B-cell receptor (BCR) mediated activation of B cells, we developed a flow cytometry based assay to analyze CD69 expression in B cell population in human whole blood. Freshly collected heparinized human whole blood (60 µL/well) was dispensed in 96-well U bottom plate (Greiner), treated with the test compound at a concentrations ranging from 10 µM to 0.3 nM (half log dilutions). 0.5% DMSO (Sigma, cat#D2650) was used as vehicle control. The whole blood was incubated with compounds for 1 hour, followed by stimulation with anti-IgD antibody (Goat Anti-Human IgD Antibody - affinity purified, Bethyl laboratories, cat#A80-106A) at a final concentration of 30 µg/mL at 37°C and 5% CO2 for 4 hours. Subsequently, 45 µL blood was transferred to 1.5 ml microcentrifuge tubes and 1.2 µL of anti-CD20-PE.Cy5 (BD Biosciences, cat#561761)and 1.6 µL of anti-CD69-PE (eBioscience, cat#12-0691-83) antibody were added and mixed properly by gently tapping the tubes. Blood was stained for 20 minutes at room temperature (RT). After antibody incubation, 1 mL pre-warmed 1X Lyse/Fix solution (BD Biosciences, cat#558049) was added and cells were incubated at RT for 10 minutes. Then the tubes were centrifuged at 450xg for 5 minutes at RT and supernatant was removed. Pellet was disrupted by gentle tapping, cells were washed with 1 mL freshly prepared wash buffer and centrifuged at 450xg for 5 minutes at RT. Supernatant was removed completely before resuspending cells in 200 µl of wash buffer and proceeded for acquisition in Guava Easy Cyte Mini instrument. Acquisition was done with following laser settings: FSC Gain: X 16, FSC fine gain 100%, SSC: 893V, GRN: 663V, YLW: 649V, RED: 802V, Threshold Parameters Offset: FSC 0.73 V Threshold 300 units. The cells were diluted in such a way so that cell conc. should not exceed 500 cells/µL and at least 5000 cells were acquired. Viable lymphocytes were gated from the forward and side scatter profile of cells and B cells were sub-gated based on CD20-PE.Cy5 staining. Percent of CD69-PE positive cells were calculated among B lymphocyte sub-gate using Weasel software. Percent activity for each data point was calculated using following formula: [formula]
as §1

Assay [3] addresses T1, Recombinant Human Bruton's tyrosine kinase (Btk) (Homo sapiens, UniProt Q06187).
T1 construct: Full length human BTK (hBTK, Genbank#NM_000061.2) was cloned into pFastBac-HTB vector; 6XHis (N); made in house; host or cells: Sf9 cells (Bac-to-Bac baculovirus expression system)
In words: Recombinant Human Bruton's tyrosine kinase (Btk) inhibition assay (HTRF KinEASE-TK). It counts as biochemical. To be noted: 20 ng/ml rhBtk, 77 µM ATP (KM), 1 µM TK-Biotin Substrate, 90 minutes; read-out: IC50 (nM) in recombinant hBTK assay. The protocol: Recombinant Human Bruton's tyrosine kinase (Btk) inhibition assay.
Full length human BTK (hBTK, Genbank#NM_000061.2) was cloned into pFastBac-HTB vector (Invitrogen, cat#10359-016). hBTK gene was expressed with N'-terminal 6XHis tag in Sf9 cells using Bac-to-Bac ^(R) Baculovirus expression system (Invitrogen, cat#10359-016) and the recombinant protein was purified by Ni-NTA method. The elution buffer for hBTK consisted of 50 mM Hepes pH 8.0, 300 mM NaCl, 10% glycerol, 1 mM dithiothreitol and 200 mM imidazole.
The inhibition assays were performed using the generic tyrosine kinase assay kit from Cis Bio (HTRF® KinEASE - TK™ # 62TK0PEB). The assay is based on the principle of fluorescence resonance energy transfer (FRET) between the Europium Cryptate labeled anti-phosphotyrosine antibody and streptavidin labeled fluorophore, XL-665. In an uninhibited kinase reaction the biotinylated peptide substrate (Tk-Biotin) gets phosphorylated at an intermediate tyrosine site which is captured by anti-phosphotyrosine antibody which eventually acts as a FRET donor. The streptavidin labeled XL-665 binds strongly to the Tk-Biotin substrate and act as a FRET acceptor. The resultant FRET signal is measured at 665 nm. A ratio of this specific fluorescence (665nm) to the background fluorescence (620nm), conferred by the free antibody, is directly proportional to the kinase activity.
The Btk inhibition assays were performed using 20 ng/ml of rhBtk in a final volume of 10µl reaction buffer containing 77 µM ATP and 1 µM TK-Biotin Substrate in 50 mM HEPES pH 7.0, 5mM MgCl2, 1mM DTT, 0.01% Tween 20 and 50nM SEB®; with a range of concentrations of the inhibitors. The kinase reaction was carried out at the KM of ATP (77 µM) as well as that of Tk-Biotin substrate (1 µM). After 90 minutes, the reaction was stopped by addition of SA-XL665 at a concentration of 62.5 nM in HTRF® detection buffer containing EDTA. Finally 5 µL of TK antibody-cryptate was added to the reaction and the plate was incubated for additional 60 minutes. The fluorescence was read using the FlexStation (Molecular Devices) with excitation at 340 nm and emissions at 620nm (for Cryptate) and 665nm (for FRET). A ratio of the 2 emissions was calculated for each well and expressed as follows: Specific signal = Ratio(Sample)−Ratio(Negative) [formula] Ratio = (665nm/620nm) × 10^4 [formula] Mean Ratio = ∑Ratio/3(triplicates) [formula]
For each data point, % inhibition is calculated based on uninhibited reaction which is considered as 100% activity over no enzyme or substrate controls. Dose response data is then fit using a four parameter logistic equation using GraphPad Prism 5 software to determine inhibition constant 50(IC50).
For orientation: TR-FRET usually uses a lanthanide donor and a delayed reading to cut background.

T1 sequence (Q06187 whole entry): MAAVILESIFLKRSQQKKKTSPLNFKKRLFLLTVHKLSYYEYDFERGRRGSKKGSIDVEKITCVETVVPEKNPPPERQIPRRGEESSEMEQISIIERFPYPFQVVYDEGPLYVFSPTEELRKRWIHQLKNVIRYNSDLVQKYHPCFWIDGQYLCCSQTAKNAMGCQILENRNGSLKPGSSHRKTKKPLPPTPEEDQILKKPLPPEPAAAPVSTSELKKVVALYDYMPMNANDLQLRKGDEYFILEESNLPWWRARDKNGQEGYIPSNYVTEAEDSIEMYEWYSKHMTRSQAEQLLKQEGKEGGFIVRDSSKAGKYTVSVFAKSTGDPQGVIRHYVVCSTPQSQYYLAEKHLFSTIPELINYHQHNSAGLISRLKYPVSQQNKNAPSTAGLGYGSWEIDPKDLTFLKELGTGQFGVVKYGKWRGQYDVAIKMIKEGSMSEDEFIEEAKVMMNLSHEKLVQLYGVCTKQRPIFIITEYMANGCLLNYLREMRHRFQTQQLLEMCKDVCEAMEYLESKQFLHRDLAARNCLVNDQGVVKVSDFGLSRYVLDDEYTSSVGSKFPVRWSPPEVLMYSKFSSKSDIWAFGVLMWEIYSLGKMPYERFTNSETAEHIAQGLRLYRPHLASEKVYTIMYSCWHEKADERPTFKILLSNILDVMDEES

By IC50 is commonly meant the concentration needed to halve the response being measured. As to `O=C1c2c(F)cc(C3CC3)cc2OCCN1c1cc(F)cc(-c2ccnc3[nH]c(-c4ccc(CN5CCN(C6COC6)CC5)cn4)cc23)c1CO` [Example 1, 8-cyclopropyl-6-fluoro-4-[5-fluoro-2-(hydroxymethyl)-3-[2-[5-[[4-(oxetan-3-yl)piperazin-1-yl]methyl]-2-pyridyl]-1H-pyrrolo[2,3-b]pyridin-4-yl]phenyl]-2,3-dihydro-1,4-benzoxazepin-5-one], the IC50 is 2.7 nM in assay [1] and 16.5 nM in assay [2].

As to `O=C1c2c(F)cc(C3CC3)cc2OCCN1c1cc(F)cc(-c2ccnc3[nH]c(-c4ccc(CN5CCN(CC(F)(F)F)CC5)cn4)cc23)c1CO` [Example 2], the values for the IC50 in assay [3], in assay [1] and in assay [2] were 1.9 nM, 2.7 nM and 55.9 nM, respectively.

With `O=C1c2c(F)cc(C3CC3)cc2OCCN1c1cc(F)cc(-c2ccnc3[nH]c(-c4ccc(CN5CCN(CC(F)F)CC5)cn4)cc23)c1CO` [Example 3, 8-cyclopropyl-4-[3-[2-[5-[[4-(2,2-difluoroethyl)piperazin-1-yl]methyl]-2-pyridyl]-1H-pyrrolo[2,3-b]pyridin-4-yl]-5-fluoro-2-(hydroxymethyl)phenyl]-6-fluoro-2,3-dihydro-1,4-benzoxazepin-5-one], the IC50 in assay [3] worked out at 0.65 nM; in assay [1], 2.4 nM; in assay [2] it was 54.2 nM.

For `O=C1c2c(F)cc(C3CC3)cc2OCCN1c1cc(F)cc(-c2ccnc3[nH]c(-c4ccc(CN5CCOCC5)cn4)cc23)c1CO` [Example 4, 8-cyclopropyl-6-fluoro-4-[5-fluoro-2-(hydroxymethyl)-3-[2-[5-(morpholinomethyl)-2-pyridyl]-1H-pyrrolo[2,3-b]pyridin-4-yl]phenyl]-2,3-dihydro-1,4-benzoxazepin-5-one], the IC50 in assay [3] worked out at 0.55 nM.

With `C[C@H]1CN(Cc2ccc(-c3cc4c(-c5cc(F)cc(N6CCOc7cc(C8CC8)cc(F)c7C6=O)c5CO)ccnc4[nH]3)nc2)CCN1CC(F)F` [Example 5, 8-cyclopropyl-4-[3-[2-[5-[[(3S)-4-(2,2-difluoroethyl)-3-methyl-piperazin-1-yl]methyl]-2-pyridyl]-1H-pyrrolo[2,3-b]pyridin-4-yl]-5-fluoro-2-(hydroxymethyl)phenyl]-6-fluoro-2,3-dihydro-1,4-benzoxazepin-5-one], the IC50 in assay [3] was 3 nM.

Turning to `C[C@H]1CN(CC(F)F)CCN1Cc1ccc(-c2cc3c(-c4cc(F)cc(N5CCOc6cc(C7CC7)cc(F)c6C5=O)c4CO)ccnc3[nH]2)nc1` [Example 6, 8-cyclopropyl-4-[3-[2-[5-[[(2S)-4-(2,2-difluoroethyl)-2-methyl-piperazin-1-yl]methyl]-2-pyridyl]-1H-pyrrolo[2,3-b]pyridin-4-yl]-5-fluoro-2-(hydroxymethyl)phenyl]-6-fluoro-2,3-dihydro-1,4-benzoxazepin-5-one], the IC50 in assay [3] came to 2.7 nM.

As to `C[C@@H]1CN(Cc2ccc(-c3cc4c(-c5cc(F)cc(N6CCOc7cc(C8CC8)cc(F)c7C6=O)c5CO)ccnc4[nH]3)nc2)CCN1CC(F)F` [Example 7, 8-cyclopropyl-4-[3-[2-[5-[[(3R)-4-(2,2-difluoroethyl)-3-methyl-piperazin-1-yl]methyl]-2-pyridyl]-1H-pyrrolo[2,3-b]pyridin-4-yl]-5-fluoro-2-(hydroxymethyl)phenyl]-6-fluoro-2,3-dihydro-1,4-benzoxazepin-5-one], in assay [3], the IC50 came to 1.8 nM.

Regarding `O=C1c2ccc(C3CC3)cc2OCCN1c1cc(F)cc(-c2ccnc3[nH]c(C4=CCN(C5COC5)CC4)cc23)c1CO` [Example 9, 8-cyclopropyl-4-[5-fluoro-2-(hydroxymethyl)-3-[2-[1-(oxetan-3-yl)-3,6-dihydro-2H-pyridin-4-yl]-1H-pyrrolo[2,3-b]pyridin-4-yl]phenyl]-2,3-dihydro-1,4-benzoxazepin-5-one], the values for the IC50 in assay [3] and in assay [1] were 2.5 nM and 47 nM, respectively.

Turning to `CC(C)(O)CN1CC=C(c2cc3c(-c4cc(F)cc(N5CCOc6cc(C7CC7)ccc6C5=O)c4CO)ccnc3[nH]2)CC1` [Example 10, 8-cyclopropyl-4-[5-fluoro-2-(hydroxymethyl)-3-[2-[1-(2-hydroxy-2-methyl-propyl)-3,6-dihydro-2H-pyridin-4-yl]-1H-pyrrolo[2,3-b]pyridin-4-yl]phenyl]-2,3-dihydro-1,4-benzoxazepin-5-one], the IC50 in assay [3] was found to be 4 nM; in assay [1], 27 nM.

As to `O=C1c2c(F)cc(C3CC3)cc2OCCN1c1cc(F)cc(-c2ccnc3[nH]c(-c4ccc(OC5CCN(C6COC6)CC5)cn4)cc23)c1CO` [Example 11, 8-cyclopropyl-6-fluoro-4-[5-fluoro-2-(hydroxymethyl)-3-[2-[5-[[1-(oxetan-3-yl)-4-piperidyl]oxy]-2-pyridyl]-1H-pyrrolo[2,3-b]pyridin-4-yl]phenyl]-2,3-dihydro-1,4-benzoxazepin-5-one], the IC50 in assay [3] came out at 1.15 nM.
